Among the data in ChEMBL document CHEMBL4334519, “Anti-inflammatory and α-Glucosidase Inhibitory Activities of Labdane and Norlabdane Diterpenoids from the Rhizomes of Amomum villosum” (J Nat Prod, 2019) are IC50, inhibition and Ki values, retold here.

The test system of one test is RAW264.7. The experiment in a line: Antiinflammatory activity against mouse RAW264.7 cells assessed as inhibition of LPS-induced nitric oxide production measured after 24 hrs. The following applies: RAW264.7, 24 h. It counts as functional, cell-based.
Test [1] is described as follows: Inhibition of yeast alpha-glucosidase using p-nitrophenyl-alpha-D-glucopyranoside as substrate preincubated for 30 mins followed by substrate addition and measured after 30 mins by microplate reader analysis. Set-up: species or system Saccharomyces cerevisiae.
Test [2] deals with Saccharomyces cerevisiae. In words: Inhibition of yeast alpha-glucosidase at 50 uM using p-nitrophenyl-alpha-D-glucopyranoside as substrate preincubated for 30 mins followed by substrate addition and measured after 30 mins by microplate reader analysis.
The test system of test [3] is Saccharomyces cerevisiae. The experiment in a line: Mixed-type inhibition of yeast alpha-glucosidase assessed as reduction in Vmax up to 20 uM using p-NPG as substrate measured up to 180 mins by Lineweaver-Burk plot analysis.
The nature of test [4]: Mixed-type inhibition of yeast alpha-glucosidase assessed as inhibition constant using p-NPG as substrate measured up to 180 mins by Lineweaver-Burk plot analysis. Also noted: species or system Saccharomyces cerevisiae.
Test [5] concerns Saccharomyces cerevisiae. In words: Mixed-type inhibition of yeast alpha-glucosidase assessed as reduction in Km up to 20 uM using p-NPG as substrate measured up to 180 mins by Lineweaver-Burk plot analysis.

The source made the active and inactive calls. No cut-off for these calls is given here.

`C=C1CC[C@H]2C(C)(C)CCC[C@]2(C)[C@H]1C/C=C(/C=O)CO`: the IC50 was 28.7 µM in the test with RAW264.7 and greater than 50 µM in test [1]. For the same compound, in the test with Saccharomyces cerevisiae [2], the inhibition worked out at 27.1%.
The matching figures for `C=C1CC[C@H]2C(C)(C)CCC[C@]2(C)[C@H]1C/C=C1\CC(=O)OC1=O`: 11 µM, 21.1 µM and 90.3%.
Regarding `C=C1CC[C@H]2C(C)(C)CCC[C@]2(C)[C@H]1C/C=C1\CC(OCC)OC1=O` (some centres undefined), the values for the IC50 (in the test with RAW264.7; in test [1]) were 31.2 µM and 13.8 µM, respectively. Moreover, the inhibition in the test with Saccharomyces cerevisiae [2] came to 89.3%.
Turning to `C=C1CC[C@H]2C(C)(C)CCC[C@]2(C)[C@H]1/C=C/C(=O)O`, the results for the IC50 (in the test with RAW264.7; in test [1]) were 23.7 µM and greater than 50 µM, respectively. The compound further gave an inhibition with Saccharomyces cerevisiae [2] of 33.2%.
Consider `C=C1CC[C@H]2C(C)(C)CCC[C@]2(C)[C@H]1C/C=C1\CCOC1=O`, for which the IC50 amounted to 30.8 µM in the test on RAW264.7 and 17.1 µM in test [1]. The same compound gave an inhibition with Saccharomyces cerevisiae [2] of 89.1%.
As for `C=C1CC[C@H]2C(C)(C)CCC[C@]2(C)[C@H]1/C=C/C1=CC(=O)O[C@H]1O`, the inhibition entry with Saccharomyces cerevisiae [3] and with Saccharomyces cerevisiae [5] was “Active” throughout. The IC50 with RAW264.7 was found to be 2.4 µM; in test [1], 10 µM. The inhibition in the test with Saccharomyces cerevisiae [2] worked out at 95.7%. The Ki in test [4] is 9.5 µM.
In the case of `C=C1CC[C@H]2C(C)(C)CCC[C@]2(C)[C@H]1C/C=C1\CC(OC)OC1=O` (some centres undefined), the IC50 in the test with RAW264.7 stood at 24.6 µM; in test [1] it was 15.8 µM. Moreover, the inhibition in the test with Saccharomyces cerevisiae [2] amounted to 87.8%.
For `O=c1c(-c2ccc(O)cc2)coc2cc(O)cc(O)c12` [GENISTEIN], the half-maximal inhibitory concentration (IC50) in test [1] turned out to be 17.6 µM. In the test with Saccharomyces cerevisiae [2], this compound had an inhibition of 70%.
Regarding `CNC(=N)NCCC[C@H](N)C(=O)O` [TILARGININE], the IC50 in the test with RAW264.7 came to 27.2 µM.
`C=C1CC[C@H]2C(C)(C)CCC[C@]2(C)[C@H]1C/C=C(\CC(=O)OCC)C(=O)O`: the IC50 (with RAW264.7; in test [1]) was greater than 50 µM each time. The compound further returned an inhibition with Saccharomyces cerevisiae [2] of 38.7%.
Take `C=C1CC[C@H]2C(C)(C)CCC[C@]2(C)[C@H]1CCC1=CC(O)OC1=O` (some centres undefined) [CORONARIN C]: the IC50 in the test on RAW264.7 is 25.8 µM; in test [1] it was 17.5 µM. Further, the inhibition in the test on Saccharomyces cerevisiae [2] amounted to 87.4%.
`C=C1CC[C@H]2C(C)(C)CCC[C@]2(C)[C@H]1CCC1=CC(=O)OC1`: the IC50 with RAW264.7 stood at 18.8 µM; in test [1], 14.8 µM. Further, the inhibition in the test with Saccharomyces cerevisiae [2] was 89%.
In the case of `CC1(C)CCC[C@]2(C)CC3=C(C[C@@H]12)C(=O)CC3`, the figures for the IC50 (in the test on RAW264.7; in test [1]) were 43.1 µM and greater than 50 µM, respectively. The inhibition with Saccharomyces cerevisiae [2] was determined as 12.4%.
In turn, `OC[C@H]1NC[C@H](O)[C@@H](O)[C@@H]1O` [DUVOGLUSTAT] had an IC50 in test [1] of 115 µM. In addition, the inhibition with Saccharomyces cerevisiae [2] was found to be 36.8%.
Consider `C=C1CC[C@H]2C(C)(C)CCC[C@]2(C)[C@H]1C/C=C(/C=O)CCO`, for which the concentration for half-maximal inhibition (IC50) (in the test with RAW264.7; in test [1]) was greater than 50 µM throughout. This compound registered an inhibition in the test with Saccharomyces cerevisiae [2] of 36.9%.

As usually defined, the IC50 is the midpoint of a concentration-inhibition curve. Usually inhibition stands for the relative decrease from the control value, in per cent. As usually defined, the Ki is the equilibrium dissociation constant of an inhibitor or competing ligand from its target.
